# Laboratory results as given in US12084451B2, “Compositions and methods for reducing tactile dysfunction, anxiety, and social impairment” (President and Fellows of Harvard College, priority 2018, dated 2024).
# Values joined by “and” are separate entries in the source; they are usually repeats but may differ in a detail not shown here. Equal entries are not always repeated.
# Experiments:
# hGABAA α1β3γ2 [1] = target: T1, hGABAA α1β3γ2 (Homo sapiens, UniProt P14867+P18507+P28472); test: hGABAA IonFlux HT PAM Assay, α1β3γ2; format: cell-based
# From the text: (§1) Ligand-gated ion channels targeted were hGABAA α1β3γ2 and hGABAA α2β3γ2.
# (§2) Electrophysiological assays conducted to profile nine (9) compounds for activities on the on channel targets listed above for Positive Allosteric Modulator (PAM) activities using the IonFlux HT electrophysiological platform.
# The parameters measured are described in the Data Analysis section.
# (§3) All wells included a final DMSO concentration of 0.33% including all control wells.
# (§4) All recordings were obtained from a holding potential of −60 mV. The compound addition sequence that was used for all additions was the same for all assays. […] The process was repeated with the next ascending concentration of test compound (FIG. 1).
# (§5) All data were first exported to an Excel compatible data file and then analyzed using Graph Pad Prism software.
# SNL rats = test: Rat spinal nerve ligation (SNL) model of neuropathic pain, Von frey test; format: in vivo, SD Rat; settings: 5 mpk IP; for Von frey test 50% g Threshold, group mean: N 8
# Procedure: Chung surgery were conducted on anesthetized rats. Rats were habituated in the testing environment for 15 minutes before allodynia measurement (2-3 times). Pre-dose baseline were taken on day 9 post surgery. Rats that don't show allodynic response at this point were excluded. SNL rats with a paw withdrawal threshold >4 g. The animals were grouped according to 50% paw withdrawal threshold (g) and weight. The animals were dosed test articles and vehicle according to the dose protocol. On the testing day (Day 9), rats were dosed with testing articles with 16 min interval between groups. Rats were measured for allodynic response at 0.75, 1.5, 3 h time point post dosing. All values will be expressed as mean±S.E.M. The significance of the differences among groups will be evaluated by two-way ANOVA followed by Dunnett's test using graphpad Prism 6 software. A p value of less than 0.05 is considered statistically significant.
# hGABAA α1β3γ2 [2] = target: T1, hGABAA α1β3γ2; test: hGABAA α1β3γ2 IonFlux HT Agonist Assay; format: cell-based; settings: for Normalized Percentage Activation Mean: normalized to EC100 GABA (30 μM)
# Procedure: Ligand-gated ion channel targets were hGABAA α2β3γ2 and hGABAA α1β3γ2. Electrophysiological assays conducted to profile two compounds for agonist activities on hGABAA α2β3γ2 and seven compounds for agonist activities on hGABAA α1β3γ2 using the IonFlux HT electrophysiological platform.
# The parameters measured are described in the Data Analysis section. […] Note: The test compounds was applied over two (2) ‘experimental patterns’ in increasing concentrations.
# The supplied compound was prepared in DMSO to concentrations that were 300× the final assay concentrations. Aliquots were taken out and diluted 300× into external buffer to give the final assay concentration. At wells included a final DMSO concentration of 0.33% including all control wets.
# All recordings were obtained from a holding potential of −60 mV. The compound addition sequence that was used for all additions was the same for all assays. […] Each test concentration of compound was applied for 2 seconds followed by 60 seconds wash. The process was repeated with the next ascending concentration of test compound. The test compounds were applied over two (2) ‘experimental patterns’ in increasing concentrations (FIG. 11).
# AM data were first exported to an Excel compatible data file and then analyzed using Graph Pad Prism software.
# [3] = tested on: Mecp2, Shank3, and Fmr1 mutant mice; test: animal models of ASD; format: in vivo; settings: three animal models of ASD (Mecp2, Shank3, and Fmr1 mutant mice)
# From the text: These findings raise the exciting possibility that GABAA receptor agonists, which attenuate the activity of peripheral mechanosensory neurons, may be useful for treating tactile hypersensitivity and thus anxiety and social impairments in ASD patients. Treating young children with GABAA receptor agonists has traditionally been avoided because of undesirable side effects of these drugs in children. Indeed, there is great reluctance on the part of physicians to use FDA-approved GABAA receptor agonists and positive allosteric modulators because of undesirable side effects, including sedation, and serious complications associated with interference with brain development. […] Importantly, peripherally-restricted GABAA receptor agonists should not promote undesirable side effects observed with all currently used, FDA-approved GABAA receptor agonists that act in the brain.
# hGABAA α2β3γ2 = hGABAA α2β3γ2 (Homo sapiens, UniProt P18507+P28472+P47869); test: hGABAA IonFlux HT PAM Assay, α2β3γ2; format: cell-based
# From the text: as §1, §2
# The parameters measured are described in the Data Analysis section. […] Open circles represent data that has been excluded from the curve fitting. Where no curve fit was possible, n/c (not calculable) is listed.
# as §3, §4, §5
# GABAA targets = settings: previous study (US034-0003415); cited from earlier work
# [4] = positive modulation of EC20 GABA current
# Chain of hGABAA α2β3γ2 (P47869 29-451): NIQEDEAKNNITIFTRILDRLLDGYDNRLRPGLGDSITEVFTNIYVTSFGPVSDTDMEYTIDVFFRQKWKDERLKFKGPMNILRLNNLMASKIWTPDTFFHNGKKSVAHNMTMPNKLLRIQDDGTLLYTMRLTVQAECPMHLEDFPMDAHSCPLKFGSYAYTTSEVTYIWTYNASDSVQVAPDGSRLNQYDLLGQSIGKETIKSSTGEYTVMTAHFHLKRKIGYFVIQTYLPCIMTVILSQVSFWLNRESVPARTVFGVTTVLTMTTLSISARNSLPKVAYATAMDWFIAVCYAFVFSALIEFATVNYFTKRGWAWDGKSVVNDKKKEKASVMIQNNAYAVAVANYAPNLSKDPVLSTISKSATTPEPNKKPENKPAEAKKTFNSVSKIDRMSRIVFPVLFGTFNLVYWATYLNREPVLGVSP
# Chain of hGABAA α2β3γ2 (P28472 26-473): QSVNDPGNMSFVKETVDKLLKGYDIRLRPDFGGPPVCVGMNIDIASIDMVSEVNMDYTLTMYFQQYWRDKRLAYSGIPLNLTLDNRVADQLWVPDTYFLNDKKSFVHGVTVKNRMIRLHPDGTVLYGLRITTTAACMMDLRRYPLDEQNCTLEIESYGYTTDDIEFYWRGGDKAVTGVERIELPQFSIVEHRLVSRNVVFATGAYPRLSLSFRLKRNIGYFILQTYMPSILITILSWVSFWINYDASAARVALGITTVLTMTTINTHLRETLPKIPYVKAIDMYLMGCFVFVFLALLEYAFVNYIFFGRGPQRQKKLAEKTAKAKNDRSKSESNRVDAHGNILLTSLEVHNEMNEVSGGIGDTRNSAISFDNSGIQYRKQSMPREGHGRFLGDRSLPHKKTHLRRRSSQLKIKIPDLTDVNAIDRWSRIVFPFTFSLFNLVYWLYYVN
# Chain of hGABAA α2β3γ2 (P18507 40-475): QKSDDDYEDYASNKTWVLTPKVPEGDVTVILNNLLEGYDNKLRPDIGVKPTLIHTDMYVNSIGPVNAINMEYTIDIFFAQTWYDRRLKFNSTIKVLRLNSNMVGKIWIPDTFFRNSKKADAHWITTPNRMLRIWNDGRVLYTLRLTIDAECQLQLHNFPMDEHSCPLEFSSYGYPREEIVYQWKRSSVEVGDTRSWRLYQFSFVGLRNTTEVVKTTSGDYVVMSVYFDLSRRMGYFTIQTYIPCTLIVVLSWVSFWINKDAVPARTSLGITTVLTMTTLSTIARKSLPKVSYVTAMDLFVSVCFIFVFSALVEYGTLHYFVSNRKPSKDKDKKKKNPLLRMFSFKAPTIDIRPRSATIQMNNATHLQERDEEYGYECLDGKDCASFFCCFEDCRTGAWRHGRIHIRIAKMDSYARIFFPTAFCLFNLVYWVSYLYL
# T1 sequence (P14867 28-456): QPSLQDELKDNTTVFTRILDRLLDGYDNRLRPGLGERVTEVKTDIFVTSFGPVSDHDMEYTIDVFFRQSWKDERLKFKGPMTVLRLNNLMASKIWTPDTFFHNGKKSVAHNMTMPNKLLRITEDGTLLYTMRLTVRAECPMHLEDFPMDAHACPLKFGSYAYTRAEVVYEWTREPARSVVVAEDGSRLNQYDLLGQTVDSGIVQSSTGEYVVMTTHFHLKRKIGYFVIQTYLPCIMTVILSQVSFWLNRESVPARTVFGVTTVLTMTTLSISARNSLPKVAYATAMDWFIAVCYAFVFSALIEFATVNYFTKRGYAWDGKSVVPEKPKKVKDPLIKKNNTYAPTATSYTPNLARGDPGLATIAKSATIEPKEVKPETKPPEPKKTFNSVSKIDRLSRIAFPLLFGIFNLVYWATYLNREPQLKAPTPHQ
# T1 sequence (P28472 26-473): as the sequence (P28472 26-473) above
# T1 sequence (P18507 40-475): as the sequence (P18507 40-475) above
compound,measurement,setting,value
O=C(O)C1=CCNCC1 [Isoguvacine],(%) Control mean,hGABAA α1β3γ2 [1]; 0.001 μM + EC20 GABA,103.6 % Control
same,(%) Control n1,hGABAA α1β3γ2 [1]; 0.001 μM + EC20 GABA,99.0 % Control
same,(%) Control n2,hGABAA α1β3γ2 [1]; 0.001 μM + EC20 GABA,108.2 % Control
same,(%) Control mean,hGABAA α1β3γ2 [1]; 0.01 μM + EC20 GABA,109.8 % Control
same,(%) Control n1,hGABAA α1β3γ2 [1]; 0.01 μM + EC20 GABA,108.8 % Control
same,(%) Control n2,hGABAA α1β3γ2 [1]; 0.01 μM + EC20 GABA,110.8 % Control
same,(%) Control mean,hGABAA α1β3γ2 [1]; 0.1 μM + EC20 GABA,113.7 % Control
same,(%) Control n1,hGABAA α1β3γ2 [1]; 0.1 μM + EC20 GABA,110.0 % Control
same,(%) Control n2,hGABAA α1β3γ2 [1]; 0.1 μM + EC20 GABA,117.4 % Control
same,(%) Control mean,hGABAA α1β3γ2 [1]; 1 μM + EC20 GABA,119.8 % Control
same,(%) Control n1,hGABAA α1β3γ2 [1]; 1 μM + EC20 GABA,124.5 % Control
same,(%) Control n2,hGABAA α1β3γ2 [1]; 1 μM + EC20 GABA,115.2 % Control
same,(%) Control mean,hGABAA α1β3γ2 [1]; 10 μM + EC20 GABA,73.0 % Control
same,(%) Control n1,hGABAA α1β3γ2 [1]; 10 μM + EC20 GABA,76.1 % Control
same,(%) Control n2,hGABAA α1β3γ2 [1]; 10 μM + EC20 GABA,69.9 % Control
same,(%) Control mean,hGABAA α1β3γ2 [1]; 100 μM + EC20 GABA,8.0 % Control
same,(%) Control n1,hGABAA α1β3γ2 [1]; 100 μM + EC20 GABA,7.6 % Control
same,(%) Control n2,hGABAA α1β3γ2 [1]; 100 μM + EC20 GABA,8.3 % Control
same,Mean Maximal Effect (% of Control),hGABAA α1β3γ2 [1]; normalized to baseline peak current induced by EC20 GABA (1 μM) for 2 seconds,120 % of Control
same,Estimated EC50,hGABAA α1β3γ2 [1]; [4],n/c*
same,"Von frey test 50% g Threshold, group mean","SNL rats; 0 Hour (pre-dose baseline), 5 mg/kg",2.32 g and 2.3 ± 0.33 g
same,"50% g Threshold, individual animal","SNL rats; 0 Hour (pre-dose baseline, day 9 post surgery), 5 mg/kg",0.99 g and 1.10 g and 1.85 g and 2.23 g and 2.81 g and 3.00 g and 3.31 g (2×)
same,"50% g Threshold, individual animal","SNL rats; 0.75 Hour post dosing, 5 mg/kg",1.31 g (2×) and 2.37 g (2×) and 2.81 g and 1.56 g (2×) and 0.99 g
same,"Von frey test 50% g Threshold, group mean","SNL rats; 0.75 Hour, 5 mg/kg",1.78 g and 1.8 ± 0.23 g
same,"50% g Threshold, individual animal","SNL rats; 1.5 Hour post dosing, 5 mg/kg",1.85 g (3×) and 2.37 g and 0.82 g and 2.81 g and 1.56 g and 2.64 g
same,"Von frey test 50% g Threshold, group mean","SNL rats; 1.5 Hour, 5 mg/kg",1.97 g and 2.0 ± 0.23 g
same,"50% g Threshold, individual animal","SNL rats; 3 Hour post dosing, 5 mg/kg",2.81 g and 6.74 g and 7.91 g and 3.33 g and 5.15 g and 4.34 g and 5.77 g and 3.31 g
same,"Von frey test 50% g Threshold, group mean",SNL rats; 3 Hour,4.9 ± 0.64 g
same,analgesia effect,SNL rats; 3 hour time point,significant analgesia effect
same,Normalized Percentage Activation Mean,hGABAA α1β3γ2 [2]; 0.3 μM,1.61%
same,Normalized Percentage Activation Mean,hGABAA α1β3γ2 [2]; 1 μM,2.18%
same,Normalized Percentage Activation Mean,hGABAA α1β3γ2 [2]; 3 μM,6.83%
same,Normalized Percentage Activation Mean,hGABAA α1β3γ2 [2]; 10 μM,30.46%
same,Normalized Percentage Activation Mean,hGABAA α1β3γ2 [2]; 30 μM,65.63%
same,Normalized Percentage Activation Mean,hGABAA α1β3γ2 [2]; 100 μM,84.77%
same,Normalized Percentage Activation Mean,hGABAA α1β3γ2 [2]; 300 μM,92.72%
same,Normalized Percentage Activation Mean,hGABAA α1β3γ2 [2]; 10000 μM,93.46%
same,EC50,"hGABAA α1β3γ2 [2]; agonist activation of channel currents, read-out: Estimated EC50",19.7 µM
same,"effect on tactile hypersensitivity, anxiety-like behaviors and social impairments",[3],"improves tactile hypersensitivity, anxiety-like behaviors and social impairments"
same,(%) Control mean,hGABAA α2β3γ2; 0.001 μM + EC20 GABA,95.4 % Control
same,(%) Control n1,hGABAA α2β3γ2; 0.001 μM + EC20 GABA,94.5 % Control
same,(%) Control n2,hGABAA α2β3γ2; 0.001 μM + EC20 GABA,96.3 % Control
same,(%) Control mean,hGABAA α2β3γ2; 0.01 μM + EC20 GABA,93.2 % Control
same,(%) Control n1,hGABAA α2β3γ2; 0.01 μM + EC20 GABA,90.4 % Control
same,(%) Control n2,hGABAA α2β3γ2; 0.01 μM + EC20 GABA,96.0 % Control
same,(%) Control mean,hGABAA α2β3γ2; 0.1 μM + EC20 GABA,88.9 % Control
same,(%) Control n1,hGABAA α2β3γ2; 0.1 μM + EC20 GABA,85.9 % Control
same,(%) Control n2,hGABAA α2β3γ2; 0.1 μM + EC20 GABA,91.8 % Control
same,(%) Control mean,hGABAA α2β3γ2; 1 μM + EC20 GABA,92.3 % Control
same,(%) Control n1,hGABAA α2β3γ2; 1 μM + EC20 GABA,95.4 % Control
same,(%) Control n2,hGABAA α2β3γ2; 1 μM + EC20 GABA,89.3 % Control
same,(%) Control mean,hGABAA α2β3γ2; 10 μM + EC20 GABA,45.7 % Control
same,(%) Control n1,hGABAA α2β3γ2; 10 μM + EC20 GABA,55.0 % Control
same,(%) Control n2,hGABAA α2β3γ2; 10 μM + EC20 GABA,36.4 % Control
same,(%) Control mean,hGABAA α2β3γ2; 100 μM + EC20 GABA,6.9 % Control
same,(%) Control n1,hGABAA α2β3γ2; 100 μM + EC20 GABA,8.4 % Control
same,(%) Control n2,hGABAA α2β3γ2; 100 μM + EC20 GABA,5.3 % Control
same,Mean Maximal Effect (% of Control),hGABAA α2β3γ2; normalized to baseline peak current induced by EC20 GABA (0.8 μM) for 2 seconds,95 % of Control
same,Estimated EC50,hGABAA α2β3γ2; [4],n/c*
same,agonist activity against GABAA targets,GABAA targets,exhibited agonist activity
